“And” between values parts separate entries of the source, which are not always exact repeats. Identical values can stand only once.
Conditions: Crystal; for vapor or sublimation pressure: Calculated from knudsen effusion weight loss; for molar enthalpy of sublimation: 298.15 K, Drop Calorimetry

N#Cc1cccc2ccccc12 [1-cyanonaphthalene]
Conditions | molar enthalpy of sublimation [kcal/mol] | vapor or sublimation pressure
– | 21.1 | –
289.1 K | – | 0.00012 kPa and 0.000125 kPa
291.12 K | – | 0.000163 kPa and 0.000156 kPa and 0.000157 kPa
293.12 K | – | 0.000208 kPa and 0.0002 kPa and 0.000196 kPa
295.12 K | – | 0.000275 kPa and 0.000251 kPa and 0.000265 kPa
297.13 K | – | 0.000324 kPa and 0.000319 kPa
299.13 K | – | 0.000426 kPa and 0.000418 kPa and 0.000416 kPa
301.12 K | – | 0.000535 kPa and 0.000532 kPa and 0.000527 kPa
303.3 K | – | 0.000724 kPa and 0.00069 kPa and 0.000686 kPa
305.12 K | – | 0.000843 kPa and 0.000849 kPa and 0.00084 kPa
307 K | – | 0.001033 kPa and 0.001044 kPa and 0.001034 kPa

N#Cc1ccc2ccccc2c1 [2-naphthalenecarbonitrile]
Conditions | molar enthalpy of sublimation [kcal/mol] | vapor or sublimation pressure
– | 21.7 | –
296.18 K | – | 9e-05 kPa and 9.2e-05 kPa and 9.1e-05 kPa
298.11 K | – | 0.000115 kPa and 0.000117 kPa and 0.000116 kPa
300.19 K | – | 0.000159 kPa and 0.000153 kPa and 0.000154 kPa
302.18 K | – | 0.000196 kPa and 0.000201 kPa and 0.000197 kPa
304.1 K | – | 0.000245 kPa and 0.000244 kPa
306.18 K | – | 0.000319 kPa and 0.000303 kPa and 0.000304 kPa
308.15 K | – | 0.000391 kPa and 0.000388 kPa and 0.000396 kPa
310.09 K | – | 0.000487 kPa and 0.000485 kPa and 0.000491 kPa
312.19 K | – | 0.000636 kPa and 0.000617 kPa and 0.000618 kPa
314.16 K | – | 0.000783 kPa and 0.000762 kPa and 0.000803 kPa
316.1 K | – | 0.000948 kPa and 0.000947 kPa and 0.000994 kPa

— the NIST ThermoML archive (doi:10.1016/j.jct.2011.03.013)
